Earlier results in patent publication US20240050531A1, “A METHOD FOR REVERSING AGING BRAIN FUNCTIONAL DECLINE” (THE CHINESE UNIVERSITY OF HONG KONG, priority 2020, published 2024).
Read-outs that look alike come from different tables or passages of the source.

Tests used:
GLP-1R = target: T1, GLP-1R (Rattus norvegicus, UniProt P32301)
T1 construct: host or cells: living rats (8 weeks old), endogenous receptor
T1 sequence (P32301 22-463): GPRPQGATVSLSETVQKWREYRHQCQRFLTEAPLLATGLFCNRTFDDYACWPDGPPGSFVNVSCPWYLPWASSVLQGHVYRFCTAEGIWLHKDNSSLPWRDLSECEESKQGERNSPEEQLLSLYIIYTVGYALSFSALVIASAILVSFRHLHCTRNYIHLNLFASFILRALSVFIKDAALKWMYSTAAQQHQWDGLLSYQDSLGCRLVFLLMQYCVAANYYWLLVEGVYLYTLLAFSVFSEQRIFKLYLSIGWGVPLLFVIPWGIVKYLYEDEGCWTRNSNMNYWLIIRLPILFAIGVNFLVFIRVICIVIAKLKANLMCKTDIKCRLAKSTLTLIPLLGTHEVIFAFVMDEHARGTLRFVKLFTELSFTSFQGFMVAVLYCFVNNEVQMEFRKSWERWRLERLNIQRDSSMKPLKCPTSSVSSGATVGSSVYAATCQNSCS

[1] = intraperitoneal (i.p.) injection

associative and spatial learning (GLP-1R; intracerebroventricular (i.c.v) administration, 8 weeks old rats)	associative and spatial learning (GLP-1R; peripheral administration)	Substance	hippocampus-associated reference memory performance [1]	immobility in the forced swim test [1]
enhance associative and spatial learning	also active	[Ser(2)]exendin(1-9)	–	–
–	–	exendin-4	improves	decreases immobility
